Assay results reported in US20010041177A1, “Methods for detecting inflammation and inflammatory conditions” (priority 2000, published 2001).

Tests used:
[1] = system: monocyte CD163 expression; experiment: CD163 expression on monocytes of PBMCs cultured with mediators, staining and flow cytometric analysis; format: cell-based, human; details: for increase of monocyte CD163 expression: PBMCs treated 24 hours, DEX 200 nM; for effect of cytokine alone on monocyte CD163 expression: at the concentrations tested
Method: To assess whether different cytokines could influence CD163 expression, freshly isolated PBMCs were cultured for 24 hours in the presence of various cytokines, 200 nM DEX (as a positive control for CD163 upregulation), or control media. The cells were then subjected to staining and flow cytometric analysis.
For cytokine treatment studies, isolated PBMCs were suspended in hepes buffered RPMI 1640/0.05% gentamicin/10% FBS at a concentration of 2.0×10^6 to 2.5×10^6 cells/ml and cultured in 96 well plates at 37° C. and 5% CO2 in the presence of various mediators (Table 1). Mononuclear cells were stained for flow cytometric analysis after 24 hours in culture unless otherwise indicated. This enhanced cell recovery because monocytes, which initially adhere to plastic vessels, transiently detach from culture wells at 24-48 hours.
All staining procedures were performed at 4 C. Briefly, cultured PBMCs were incubated with normal human IgG (6 mg/ml) to block Fc receptor-specific binding of mAbs and 30 μg/ml of the isotype control mAb P3 or a saturating amount of mAb MAC2-48 (20 μg/ml) for one hour. Cells were then washed and stained for one hour with 17.5 μg/ml FITC labeled goat F(ab=)2 anti-mouse Ig. The cells were again washed and fixed with 1% methanol free formalin.
Cell fluorescence of monocytes gated using forward and side scatter was analyzed using a Becton Dickenson FACScan (Franklin Lakes, N.J.). Mean fluorescence intensity (MFI) was calculated by subtracting the MFI of the P3 stained mononuclear cells from the MFI of the corresponding Mac2-48 stained cells.

[2] = system: CD163 expression on monocytes; experiment: Monocytes cultured with LPS, DEX or IL-10, surface CD163 by immunofluorescence; format: cell-based, human; details: monocytes cultured with the agent alone
Method: In addition to testing the effects of cytokines in combination with glucocorticoids on levels of CD163, studies were performed to examine the effects of glucocorticoids in combination with lipopolysaccharide (LPS). […] However, when monocytes were cultured for 48 hours with DEX combined with LPS, their was a synergistic increase in CD163 expression, where the effect of DEX alone was increased by more than 2-fold when LPS treatment was added.

CD163 mRNA = experiment: Northern blots of CD163 mRNA in treated monocytes; format: cell-based, human; details: monocytes treated 8 hours; 5 ng/ml IL-10 or 10^-8 M FP
Method: Monocytes were treated for 8 hours with either IL-10, the glucocorticoid FP or control media.
Human monocytes were isolated and cultured overnight as described for western blots. Monocytes were then stimulated for 8 hours with 5 ng/ml IL-10 (R&D Systems) or 10^-8 M FP. Total RNA was isolated from IL-10 stimulated, glucocorticoid stimulated and control monocytes as described by Dreier, et al. (Dreier, J. et al. 1998. DNA Cell Biol. 17:321-323). 10 μg of total RNA per sample were electrophoretically separated in a 1% agarose, 2% formaldehyde gel and transferred onto a Hybond N^+nylon membrane (Amersham Inc., Arlington Heights, Ill.) in 20x saline-sodium citrate (SSC) using an LKB 2016 VacuGene blotting apparatus. Antisense RNA probes for northern hybridization were generated from linearized DNA templates using a digoxigenin RNA labeling kit (Boehringer Mannheim, Mannheim, Germany) and T7 RNA polymerase (New England Biolabs, Schwalbach, Germany) as described by the manufacturer. Prehybridization was performed at 68° C. for 1 hr in a high SDS hybridization buffer (7% SDS, 5x SSC, 50% formamide, 50 mM sodium phosphate, 2% casein, 0.1% N-lauroylsarcosine, pH 7.0). Subsequently the heat-denatured probes (10 minutes at 95° C.) were added to the prehybridization solution (100 ng/ml) and hybridized at 68° C. for 16 hours. […]

monocyte surface CD163 [3] = experiment: Shedding of monocyte surface CD163 in vitro; format: cell-based, human; details: cells pretreated with glucocorticoids plus LPS
Method: Therefore, like PMA, LPS is capable of inducing CD163 shedding. LPS-induced shedding occurred even with monocytes that had been cultured for 48 hours in DEX and thus had 5- to 10-fold higher levels of surface CD163 than freshly isolated monocytes. […] This LPS-conferred resistance to subsequent LPS-induced shedding of CD163 is similar to reported endotoxin pre-conditioning for resistance to subsequent inflammatory insults.

monocyte surface CD163 [4] = details: Droste et al. 1999; blocked by protease inhibitors; cited from earlier work
[5] = system: CD163 expression on monocytes; details: purified monocytes, 2 days; cited from earlier work

C[C@@H]1C[C@H]2[C@@H]3CCC4=CC(=O)C=C[C@]4(C)[C@@]3(F)[C@@H](O)C[C@]2(C)[C@@]1(O)C(=O)CO [DEX, reference compound]
increase of monocyte CD163 expression ([1]; p<0.01): ~7 fold | surface CD163 on monocytes, single agent [2]: increased expression of CD163

CCC(=O)O[C@]1(C(=O)SCF)[C@H](C)C[C@H]2[C@@H]3C[C@H](F)C4=CC(=O)C=C[C@]4(C)[C@@]3(F)[C@@H](O)C[C@@]21C [FP, reference compound]
CD163 mRNA levels (CD163 mRNA): increased from undetectable to strong bands

CCCCCCCCCCCCCC(=O)O[C@@H]1[C@@H](C)[C@@]2(O)[C@@H](C=C(CO)C[C@]3(O)C(=O)C(C)=C[C@@H]23)[C@@H]2C(C)(C)[C@]12OC(C)=O [PMA]
shedding of surface CD163 on subsequent treatment (monocyte surface CD163 [3]): remained sensitive to PMA-induced shedding | shedding of surface CD163 from monocytes in culture (monocyte surface CD163 [4]): induce rapid shedding of surface CD163

GM-CSF: granulocyte-macrophage colony stimulating factor
effect of cytokine plus DEX on CD163 expression over DEX treatment alone ([1]; PBMCs 24 hours): does not enhance CD163 expression over DEX treatment alone | effect of cytokine alone on CD163 expression [5]: neither GM-CSF nor IL-4 alone had any effect | effect of cytokine plus DEX on CD163 expression [5]: synergistic effect

IL-13: interleukin-13, a cytokine
effect of cytokine alone on monocyte CD163 expression ([1]; PBMCs 24 hours): did not upregulate CD163 expression

B1: IL-4: interleukin-4, a cytokine (protein, UniProt P05112 25-153, looked up)
Interleukin-4: HKCDITLQEIIKTLNSLTEQKTLCTELTVTDIFAASKNTTEKETFCRAATVLRQFYSHHEKDTRCLGATAQQFHRHKQLIRFLKRLDRNLWGLAGLNSCPVKEANQSTLENFLERLKTIMREKYSKCSS
effect of cytokine plus DEX on CD163 expression over DEX treatment alone ([1]; PBMCs 24 hours): does not enhance CD163 expression over DEX treatment alone | effect of cytokine alone on monocyte CD163 expression ([1]; PBMCs 24 hours): did not upregulate CD163 expression | effect of cytokine alone on CD163 expression [5]: neither GM-CSF nor IL-4 alone had any effect | effect of cytokine plus DEX on CD163 expression [5]: synergistic effect

B2: IL-10: Interleukin-10 (originally known as cytokine synthesis inhibitory factor), a cytokine (protein, UniProt P22301 19-178, looked up)
Interleukin-10: SPGQGTQSENSCTHFPGNLPNMLRDLRDAFSRVKTFFQMKDQLDNLLLKESLLEDFKGYLGCQALSEMIQFYLEEVMPQAENQDPDIKAHVNSLGENLKTLRLRLRRCHRFLPCENKSKAVEQVKNAFNKLQEKGIYKAMSEFDIFINYIEAYMTMKIRN
increase of CD163 expression compared to control ([1]; PBMCs 24 hours, 10 and 100 ng/ml IL-10, p<0.01): approximately 3.5 fold | increase of monocyte CD163 expression ([1]; p<0.01): approximately 4 fold | CD163 mRNA levels (CD163 mRNA): increased from undetectable to strong bands | surface CD163 on monocytes, single agent [2]: increased expression of CD163
